Test results published in US4788069A (The Coca-Cola Company, priority 1987, dated 1988).
Residues, ends and D or L forms follow the SMILES beside them.

What was measured:
[1] = cited from earlier work; for times sweeter than sucrose: prior art value, weight to weight stated for formula 1
[2] = Sweetness relative to sucrose, compounds tasted in aqueous solution; conditions: for Sweetness (x sucrose w/w): Table I, diastereomeric mixtures of L-aspartyl-3-(bicycloalkyl) D,L-alanine methyl esters
Experimental: The 2R-endo- and 2R-exo-fenchyl esters described by Fujino, cited above, have sweetness of high intensity.
In Table I, the reported sweetness is measured for diastereomeric mixtures. The sweetness of each optically pure compound according to the invention will differ from the sweetness of the mixture.
The sweetness values of each compound shown in Table I correspond to a mixture of optical isomers, whose maximum theoretical number of isomers is listed. In order to evaluate the sweetness of different isomeric forms, four pairs of optical isomers of one of the novel compounds were synthesized. Each pair differed from the others only in the stereochemistry of the bicyclic camphor ring.

CC12CCC(C1)C(C)(C)C2OC(=O)C(NC(=O)C(N)CC(=O)O)c1ccccc1 (stereo not drawn) [2R, exo-fenchyl ester]
sweetness intensity (in words) ([1]; prior art fenchyl esters): high sweetness intensities

COC(=O)C(CC1CC2CCC1C2)NC(=O)[C@@H](N)CC(=O)O (stereo partly drawn) [(R,S)endo norbornyl, L-Aspartyl-D,L-(endo-R,S-norbornyl)-3-alanine methyl ester]
Sweetness (x sucrose w/w) [2]: 290 x sucrose w/w

COC(=O)C(CC1CC2CCC1C2)NC(=O)C(N)CC(=O)O [(R,S)exo norbornyl]
Sweetness (x sucrose w/w) [2]: 200 x sucrose w/w

COC(=O)C(NC(=O)[C@@H](N)CC(=O)O)C(=O)OC1C2(C)CCC(C2)C1(C)C (stereo partly drawn) [L-aspartyl-2-amino malonyl methyl fenchyl diester]
times sweeter than sucrose [1]: 20,000 times sweeter than sucrose

COC(=O)[C@H](Cc1ccccc1)NC(=O)[C@@H](N)CC(=O)O [L-aspartyl-L-phenylalanine methyl ester] (H-Asp-Phe-OMe)
times sweeter than sucrose [1]: about 180 times sweeter than sucrose

COC(=O)C(CC1CC2CCC1C2)NC(=O)[C@@H](N)CC(=O)O (stereo partly shown) [norbornyl]
Sweetness (x sucrose w/w) [2]: 225 x sucrose w/w

(alpha-carboxy) glycyl-3-norbornylalanine methyl ester
sweetness (in words) ([2]; formula 4 tasted in aqueous solution): intensely sweet
